Reference: patent publication US12612412B2, “Antiviral heterocyclic compounds” (Enanta Pharmaceuticals, Inc., priority 2021, dated 2026)
Read-outs that look alike come from different tables or passages of the source.

Key:
[1] = test system: recombinant HMPV CAN97-83 containing eGFP (MPV-GFP1); assay: HMPV antiviral assay Method-A (MPV-GFP1 eGFP fluorescence in Vero E6 cells); type: cell-based, Human metapneumovirus (HMPV); settings: human metapneumovirus, Vero C1008, 120 h, read-out: HMPV EC50
Protocol: HMPV antiviral activity was evaluated using a recombinant version of HMPV CAN97-83 engineered to contain the coding sequence for enhanced green fluorescence protein (eGFP) in the 3′ end of the virus genome (MPV-GFP1, ViraTree). Vero E6 cells ([…]) were seeded at a density of 12,000 cells/100 μL/well into 96-well cell plates one day prior to the assay. On the day of screening, the cell culture medium was aspirated from the wells and cells were washed twice with serum-free Eagle's Modified Essential Medium (EMEM, ATCC #) containing 1% penicillin-streptomycin (Invitrogen) (SF-EMEM). Cell washes were performed by dispensing 100 μL SF-EMEM per well and immediately aspirating the wash medium from the well. Following the second wash step, serum-free OptiMEM (Invitrogen, Cat No.) (SF-OptiMEM) containing 0.5 μg/mL TPCK-Trypsin (VENDOR) and 1% penicillin-streptomycin was added to the cells at 50 μL/well. Compounds were added into the 96-well plates using a JANUS automated liquid handling system (VENDOR). Compounds were initially diluted 1:50 into an intermediate 96-well plate containing SF-OptiMEM prior to transfer to the assay plate (25 μL/well). Each of the test compounds were tested in duplicate wells at final concentrations starting from 8 μM or 2 μM using ½ stepwise dilutions for a total of 8 points. Virus infection was performed by preparing a working stock of MPV-GFP1 at a multiplicity of infection (MOI) equal to 0.05/25 μL and aliquoting 25 μL of virus inoculum to the compound and positive control wells. SF-OptiMEM was added (25 μL/well) to the appropriate wells to serve as a virus-free negative control for the assay. The final DMSO concentration of all wells is 0.5%. Plates were incubated at 32° C., 5% CO2 for 5 days.
After 5 days incubation, eGFP fluorescence intensity was measured at (X) […] wavelength using a Spectramax i3× plate reader (VENDOR). Percent viral inhibition was calculated using the following equation: y=[…]
Where XQ is the fluorescence intensity measured in a well containing recombinant MPV-GFP1-infected, compound-treated cells and XP is the average fluorescence intensity measured in the wells containing untreated cells infected with recombinant virus. EC50 values were then calculated by non-linear regression using a four parameter curve logistic equation. The curve fit model employed was XLFit Dose Response One Site Model 200: y=(A+(B/(1+((x/C)^D))))
Where A is the minimum y value, B is the maximum y value, C is the log EC50 value, and D is the slope factor. […] EC50 ranges are as follows: A<0.5 μM; B>0.5 μM.

[2] = test system: genotype A, "Long" strain RSV; assay: RSV-A assay (CPE protection in Hep-2 cells, ATPlite readout); type: cell-based, Human respiratory syncytial virus (HRSV); settings: human respiratory syncytial virus, MOI 0.1, CPE protection
In short: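 Hep-2 cells (8,000/well) were treated with 2-fold serial compound dilutions in duplicate and infected with RSV at MOI 0.1. After 5 days, protection from cytopathic effect was measured as cell viability by ATPlite luminescence, and EC50 values were derived.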

[3] = test system: HMPV clinical isolate TN/1501/A1; assay: HMPV antiviral assay Method-B (clinical isolate TN/1501/A1 in LLC-MK2 cells, ATP-Lite readout); type: cell-based, Human metapneumovirus (HMPV); settings: human metapneumovirus, LLC-MK2, 144 h, hMPV WT1501 (clinical isolate TN/1501/A1), 6 days
In short: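 LLC-MK2 cells infected in suspension with TN/1501/A1 at MOI 0.014 in serum-free medium with 2 μg/mL TPCK-trypsin (final), incubated 6 days at 37° C. Compounds tested in duplicate, 10-point 3-fold dilutions from 10 μM. Cell health read by ATP-Lite luminescence, normalised to virus-only and cells-only controls; EC50 by four-parameter logistic fit.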

[4] = genotype A “Long” strain RSV, read-out: Human RSV-A (“Long”)
[5] = RSV-A Long strain, read-out: Human RSV-A (“Long”) EC50

Compound	EC50 [1] [nM]	EC50 [2, 4] [nM]	EC50 [3] [nM]	EC50 [2, 5] [nM]
C[C@]1(C(N)=O)COc2c1cc([C@@](O)(CNC(=O)c1ccc3nc(CF)sc3c1)C(F)(F)F)nc2-c1ccc(F)cc1 [Example 142]	> 500	< 200	–	–
C[C@]1(C(N)=O)COc2c1cc([C@@](O)(CNC(=O)c1cc(NC(=O)NC3CC3)c3ncc(Cl)cc3c1)C(F)(F)F)nc2-c1ccc(F)c(Cl)c1 [Example 220]	> 500	< 200	–	–
COc1cc(C(=O)NC[C@](O)(c2cc3c(c(-c4ccc(Cl)c(F)c4)n2)OC[C@]3(C)C(N)=O)C(F)(F)F)cc2cc(C3CC3)nn12 [Example 301]	< 500	< 200	–	–
COc1cc(C(=O)NC[C@](O)(c2cc3c(c(-c4ccc(F)cc4)n2)OC[C@]3(C)C(N)=O)C(F)(F)F)cc2cc(CF)c(C)nc12 [Example 147]	< 500	< 200	–	–
Cc1cnc2c(OC(F)(F)F)cc(C(=O)NC[C@](O)(c3cc4c(c(-c5ccc6c(c5)OC(F)(F)O6)n3)OC[C@]4(C)C(N)=O)C3CC3)cc2c1 [Example 542]	–	< 200	< 500	–
COc1cc(C(=O)NC[C@](O)(c2cc3c(c(-c4ccc(F)cc4)n2)OC[C@]3(C)C(N)=O)C2CC2)cc2cc(Cl)c(Cl)nc12 [Example 1105]	–	–	> 500	< 200
COc1cc(C(=O)NC[C@](O)(c2cc3c(c(-c4ccc(F)c(F)c4Cl)n2)OC[C@]3(C)C(N)=O)C2CC2)cc2cc(C)cnc12 [Example 1195]	–	–	< 500	< 200
COc1ccc(C(=O)NC[C@](O)(c2cc3c(c(-c4ccc5c(c4)OC(F)(F)O5)n2)OC[C@]3(C)C(N)=O)C(F)(F)F)n2ccnc12 [Example 700]	–	< 200	> 500	–
C[C@]1(C(N)=O)COc2c1cc([C@@](O)(CNC(=O)c1cc(F)c(F)c(NC(=O)NC3CC3)c1)C(F)(F)F)nc2-c1ccc(F)cc1 [Example 624]	–	< 200	> 500	–
C[C@]1(C(N)=O)COc2c1cc([C@@](O)(CNC(=O)c1ccnc3nccn13)C(F)(F)F)nc2-c1ccc(F)cc1 [Example 489]	–	> 200	> 500	–
COc1cc(C(=O)NC[C@](O)(c2cc3c(c(-c4ccc(F)cc4Cl)n2)OC[C@]3(C)C(N)=O)C(F)(F)F)cc2cn(C(F)F)nc12 [Example 529]	–	< 200	< 500	–
C[C@]1(C(N)=O)COc2c1cc([C@@](O)(CNC(=O)c1cc(F)cc(NC(=O)NC3CC3)c1)C(F)(F)F)nc2-c1ccc(F)cc1 [Example 628]	–	> 200	> 500	–
Cc1cnc2c(OC(F)F)cc(C(=O)NC[C@](O)(c3cc4c(c(-c5cc(F)c(F)cc5F)n3)OC[C@]4(C)C(N)=O)C(F)(F)F)cc2c1 [Example 1142]	–	–	< 500	< 200
C[C@]1(C(N)=O)COc2c1cc([C@@](O)(CNC(=O)c1cc(Cl)c3nn(C4CC4)cc3c1)C1CC1)nc2-c1c(F)ccc(Cl)c1F [Example 1166]	–	–	< 500	< 200
C[C@]1(C(N)=O)COc2c1cc([C@@](O)(CNC(=O)c1ccn3nc(C4CC4)cc3c1)C(F)(F)F)nc2-c1ccc2c(c1)OC(F)(F)O2 [Example 592]	–	< 200	< 500	–
COc1cc(C(=O)NC[C@](O)(c2cc3c(c(-c4cc(F)c(F)c(Cl)c4)n2)OC[C@]3(C)C(N)=O)C(F)(F)F)cc2cn(C3CC3)nc12 [Example 782]	–	< 200	< 500	–
COc1cc(C(=O)NC[C@](O)(c2cc3c(c(-c4cc(Cl)ccc4F)n2)OC[C@]3(C)C(N)=O)C(F)(F)F)cc2cn(C3CC3)nc12 [Example 990]	–	–	< 500	< 200
